Details: Liquid

CC(=O)C(C)=O [2,3-butanedione]
Details | vapor or sublimation pressure [kPa]
314.3 K | 19.06
320.55 K | 24.04
325.62 K | 29.03
329.85 K | 33.91
333.64 K | 39
336.76 K | 43.59
339.99 K | 48.97
342.8 K | 53.85
345.41 K | 58.83
347.62 K | 63.83
349.9 K | 68.81
351.89 K | 73.79

CCC(=O)C(C)=O [2,3-pentanedione]
Details | vapor or sublimation pressure [kPa]
331.84 K | 15.37
338.38 K | 20.36
343.73 K | 25.35
348.13 K | 30.35
352.15 K | 35.34
355.74 K | 40.33
358.85 K | 45.32
361.89 K | 50.21
364.69 K | 55.21
367.09 K | 60.2
369.44 K | 65.19
371.61 K | 70.18
373.8 K | 75.27

CC(C)=O [acetone]
Details | vapor or sublimation pressure [kPa]
297.67 K | 30.23
301.25 K | 35.22
307.33 K | 45.21
310.08 K | 50.4
312.52 K | 55.29
314.76 K | 60.29
316.8 K | 65.08
318.77 K | 70.07
